Measurements taken from patent publication US20090306142A1, “METHODS TO CONTROL QoI-RESISTANT FUNGAL PATHOGENS” (DOW AGROSCIENCES LLC, priority 2008, published 2009).
In brackets after ≈: the same amount, converted by molar mass. Where two headings read alike, the source gives them in different places.

Experiments:
[1] = test system: QoI-sensitive SEPTTR isolates ('WT'); experiment: in vitro fungitoxicity, panel of SEPTTR isolates, QoI-sensitive; details: for mean EC50, QoI-Sensitive (n = 17): mean of 17 QoI-sensitive isolates
Description: (§1) A panel of 31 SEPTTR isolates was used in in vitro fungitoxicity experiments. Most of the used isolates were isolated from wheat in the UK from 2001 to 2005.

[2] = test system: QoI-resistant SEPTTR isolates ('G143A'); experiment: in vitro fungitoxicity, panel of SEPTTR isolates, QoI-resistant; details: for mean EC50, QoI-resistant (n = 14): mean of 14 QoI-resistant isolates; for fold less active against QoI-resistant than QoI-sensitive isolates: resistant vs sensitive
Description: as §1

[3] = test system: SEPTTR field isolate LARS 15; experiment: in vitro fungitoxicity, microtiter plate assay, strobilurin-sensitive isolate; details: for LARS 15 EC50: isolate LARS 15, sensitive to strobilurins; for activity against the LARS 15 strain (in words): isolate LARS 15
[4] = test system: SEPTTR field isolate R2004-6 (G143A mutation in cytochrome b); experiment: in vitro fungitoxicity, microtiter plate assay, strobilurin-resistant isolate; details: for R2004-6 EC50: isolate R2004-6, G143A, resistant to strobilurins; for activity against the QoI-resistant strain R2004-6 (in words): isolate R2004-6
[5] = test system: QoI-resistant SEPTTR isolates; experiment: in-planta control of SEPTTR on wheat cultivar Riband, QoI-resistant isolates; type: in vivo, Septoria tritici; details: visual inspection 21 days after inoculation
[6] = test system: SEPTTR field isolate R2004-6 (G143A mutation in cytochrome b)

Molecule | LARS 15 EC50 [3] [ppm] | R2004-6 EC50 [4] [ppm] | R2004-6 EC50 [6] [ppm] | also measured
CO/C=C(/C(=O)OC)c1ccccc1Oc1cc(Oc2ccccc2C#N)ncn1 [Azoxystrobin, azoxystrobin] | 0.011 | 3.00 | – | mean EC50, QoI-Sensitive (n = 17) [1]: 0.057 µg/mL; mean EC50, QoI-resistant (n = 14) [2]: 9.077 µg/mL; fold less active against QoI-resistant than QoI-sensitive isolates ([2]; ratio of mean EC50 values): 160 fold
COc1ccnc(C(=O)N[C@H]2COC(=O)[C@H](Cc3ccccc3)[C@@H](OC(=O)C(C)C)[C@H](C)OC2=O)c1OCOC(=O)C(C)C [Compound 1] | 0.169 | 0.122 | – | breaking rate for control of SEPTTR infection ([5]; isolate G3-03, QoI R): 0.9 ppm; breaking rate for control of SEPTTR infection ([5]; isolate TwistB-02, QoI R): 0.3 ppm; mean EC50, QoI-Sensitive (n = 17) [1]: 0.035 µg/mL; mean EC50, QoI-resistant (n = 14) [2]: 0.021 µg/mL; fold more active against QoI-resistant than QoI-sensitive isolates ([2]; ratio of mean EC50 values, sensitive vs resistant): 1.7 fold; activity against the LARS 15 strain (in words) [3]: highly active; activity against the QoI-resistant strain R2004-6 (in words) [4]: highly active
Fc1ccc([C@]2(Cn3cncn3)O[C@H]2c2ccccc2Cl)cc1 (racemic) [Epoxiconazole, epoxiconazole] | – | – | – | EC50 ([1]; Zymoseptoria tritici, read-out: mean EC50, QoI-Sensitive (n = 17)): 0.351 µg/mL (≈ 1.06 µM); EC50 ([2]; Zymoseptoria tritici, read-out: mean EC50, QoI-resistant (n = 14)): 0.589 µg/mL (≈ 1.79 µM); fold less active against QoI-resistant than QoI-sensitive isolates ([2]; ratio of mean EC50 values): 1.7 fold
C[C@@]1(c2ccc(Oc3ccccc3)cc2)OC(=O)N(Nc2ccccc2)C1=O (racemic) [Famoxadone, famoxadone] | 0.136 | – | >5 | –
COc1ccnc(C(=O)NC2CCCC(Sc3ccc(C(C)(C)C)cc3)C2)c1O (stereo not shown) [Compound 3] | 0.049 | – | 0.059 | –
CCC1(C)CC(NC(=O)c2cccc(NC=O)c2O)CC(C)(C)C1 (stereo not shown) [Compound 2] | 0.0006 | – | <0.0005 | –
UK2A [UK-2A] | 0.037 | 0.029 | – | activity against the LARS 15 strain (in words) [3]: highly active; activity against the QoI-resistant strain R2004-6 (in words) [4]: highly active
CO/N=C(/C(=O)OC)c1ccccc1COc1ccccc1C [Kresoxim-methyl, kresoxim-methyl] | <0.005 | – | >5 | –
antimycin A | 0.021 | 0.011 | – | –
